This is an account of results in patent US20210139435A1, “PROSTAGLANDIN ANALOGS AND USES THEREOF” (Lifex Biolabs, Inc., priority 2019, published 2021).

For the test, the target named is T1, mouse Nurr1 full-length (Mus musculus, UniProt Q06219).
T1 construct: pcDNA3.1 Myc/His mouse Nurr1 full-length construct; expressed in transfected cells; host or cells: SK-N-BE2C
T1 sequence (Q06219 whole entry): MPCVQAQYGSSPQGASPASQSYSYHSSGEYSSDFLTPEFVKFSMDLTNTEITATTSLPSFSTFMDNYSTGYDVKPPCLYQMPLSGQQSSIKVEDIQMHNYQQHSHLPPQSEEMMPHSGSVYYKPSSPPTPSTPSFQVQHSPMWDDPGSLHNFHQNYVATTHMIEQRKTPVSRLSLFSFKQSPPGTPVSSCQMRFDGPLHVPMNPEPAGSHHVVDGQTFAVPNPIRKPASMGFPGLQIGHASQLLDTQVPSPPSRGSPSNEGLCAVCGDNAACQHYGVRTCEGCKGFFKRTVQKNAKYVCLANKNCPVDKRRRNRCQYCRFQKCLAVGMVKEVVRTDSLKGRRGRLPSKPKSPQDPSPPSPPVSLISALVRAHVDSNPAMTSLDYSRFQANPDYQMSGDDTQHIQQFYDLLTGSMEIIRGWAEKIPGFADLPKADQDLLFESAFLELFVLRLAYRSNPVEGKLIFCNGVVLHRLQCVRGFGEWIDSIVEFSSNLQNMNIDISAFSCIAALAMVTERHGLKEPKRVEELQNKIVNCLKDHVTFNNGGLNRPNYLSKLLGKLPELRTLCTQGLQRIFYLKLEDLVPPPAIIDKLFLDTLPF
The test is described as follows: Luciferase reporter gene assay for Nurr1 transcriptional activity in SK-N-BE2C cells. It is filed as cell-based. The conditions noted are these: relative activity over control (luminescence value; 1.0). As for the experimental part:
To investigate whether the PG analogs of the present invention activate Nurr1 function, the inventors of the present invention employed an reporter gene assay and examined the transcriptional activation as described in Kim, C.-H. et al., Proceedings of the National Academy of Sciences 112, 8756-8761, doi:10.1073/pnas.1509742112 (2015).
The gene assay was performed by Luciferase assay as described below:
[Protocol for Luciferase Assay to Determine Nurr1 Transcriptional Activity] • 1. SK-N-BE2C cells were maintained in HyClone™ DMEM High Glucose (Cat. No.: SH30022.01) with 10% (v/v) fetal bovine serum (FBS), 100 units/ml penicillin and 100 μg/ml streptomycin. • 2. Seed 1.5×10^5 SK-N-BE2C cells/well into a 24-well plate and incubate at 37° C. with 5% CO2 for 24 hours. • 3. After 24 hours, transfect cells with pcDNA3.1 Myc/His mouse Nurr1 full-length construct, firefly luciferase reporter vector (pGL-3 basic from Promega, Cat. No.:E1751; with appropriate response element cloned in) and Renilla luciferase control vector (pRL-null from Promega, Cat. No.:E2271) in the ratio of 8:1:1 (Nurr1: firefly: renilla) or 400 ng, 50 ng and 50 ng respectively, amounting to a total of 500 ng in the 50 μl transfection mix for 1 well. • 4. To make the transfection mix, first prepare the DNA with P3000 reagent by adding the appropriate amount of DNA with 1 μl P3000 reagent and top up with Opti-MEM® I Reduced-Serum Media (from ThermoFisher Scientific [Cat. No.: 31985070]) to 25 μl. Incubate for 5 minutes at room temperature. • 5. Make another mix consisting of 1 μl Lipofectamine 3000 reagent with 24 μl Opti-MEM® I Reduced-Serum Media per well. Add this Lipofectamine mix to the previous DNA-P3000 mix (after the previous 5 minute incubation) and incubate them for 15 minutes at room temperature. [P3000:Lipofectamine=1:1]. • 6. In the meantime, change the media in the sample wells with fresh DMEM media without antibiotics. • 7. After 15 minutes incubation, add the 50 μl transfection mix into each well and incubate the plate for 24 hours at 37° C. with 5% CO2. • 8. After 24 hours, change the media to normal DMEM media with antibiotics and add various doses of compounds into designated wells and incubate the plate for another 24 hours at 37° C. with 5% CO2. • 9. Following the 24-hour incubation period, luciferase assay can be conducted using Dual-Glo Luciferase® kit from Promega (Cat. No.: E2920). • 10. Lyse each tested wells for 15 minutes with 75 μl of passive lysis buffer provided in the Dual-Luciferase® kit from Promega (Cat. No.: E1910). [Alternatively, add 75 μl of PBS and 75 μl of Dual-Glo® Luciferase Reagent and incubate for 10 minutes at room temperature (cover the plate with foil to protect from light). Transfer the entire sample in each well to a Greiner CELLSTAR® 96-well white polystyrene plate then proceed to step 13]. • 11. After 15 minutes, transfer each lysed sample to a Greiner CELLSTAR® 96-well white polystyrene plate (Cat. No.:655083). • 12. To each well of lysed cells, add 75 μl of Dual-Glo® Luciferase Reagent and incubate for 10 minutes at room temperature (cover the plate with foil to protect from light). • 13. Set the measurement with a 10-second integrated measurement period. • 14. Add 75 μl of Dual-Glo® Stop & Glo® reagent into each well and incubate for 10 minutes before commencing with the same parameters as before to determine the RLU for the Renilla luciferase. • 15. The averaged reading for wells corresponding to non-transfected cells can be subtracted from each RLU reading and duplicate/triplicate readings can then be averaged. Normalization of the luminescence reading for each well can be carried out by dividing the firefly luciferase RLU with the corresponding Renilla luciferase RLU. Each drug-treated well can then be normalized against the averaged DMSO-treated well reading.
A general note: In a reporter assay the amount or activity of a reporter protein is the signal.
As for `CS(=O)(=O)NC(=O)CCC/C=C\C[C@H]1C(=O)C[C@@H](O)[C@@H]1/C=C/[C@@H](O)COc1ccccc1` [Compound 22, Sulprostone], the “Fold activity (1 uM)” value is “B (1.1~2.0 (moderate))”.

Regarding `O=C(O)CCC/C=C\C[C@H]1[C@@H](O)CC(=O)[C@@H]1/C=C/[C@@H](O)COc1cccc(C(F)(F)F)c1` [Compound 23, 11-keto Fluprostenol], the “Fold activity (1 uM)” value is reported as “B (1.1~2.0 (moderate))”.

As to `CCCCC[C@H](O)/C=C/[C@H]1[C@H](O)CC(=O)[C@@H]1C/C=C\CCCC(=O)OCC(O)CO` (some centres unmarked) [Compound 24, Prostaglandin E2-1-glyceryl ester], the “Fold activity (1 uM)” value is reported as “A (above 2.0 (high activity))”.

On to `C=C1C[C@H](O)[C@H](C/C=C\CCCC(=O)O)[C@H]1/C=C/[C@@H](O)CCCCC` [Compound 25, 11-deoxy-11-methylene Prostaglandin D2], for which the “Fold activity (1 uM)” value was “B (1.1~2.0 (moderate))”.

In the case of `CCCCC[C@](C)(O)/C=C/[C@H]1[C@H](O)CC(=O)[C@@H]1CCCCCCC(=O)O` [Compound 27, 15(S)-15-methyl Prostaglandin E1], the “Fold activity (1 uM)” value is given as “A (above 2.0 (high activity))”.

In the case of `CCCCC[C@H](O)/C=C/[C@H]1[C@H](O)CC(=O)[C@@H]1C/C=C\CCCC(=O)OC` [Compound 28, Prostaglandin E2 methyl ester], the “Fold activity (1 uM)” value is “A (above 2.0 (high activity))”.

With `CCCCCC(=O)CC[C@H]1[C@H](O)CC(=O)[C@@H]1C/C=C\CCCC(=O)O` [Compound 29, 13,14-dihydro-15-keto Prostaglandin E2], the “Fold activity (1 uM)” value is recorded as “B (1.1~2.0 (moderate))”.

On to `O=C(O)CCC/C=C\C[C@H]1C(=O)C[C@@H](O)[C@@H]1/C=C/[C@@H](O)Cc1ccccc1` [Compound 30, 16-phenyl tetranor Prostaglandin E2], for which the “Fold activity (1 uM)” value was “A (above 2.0 (high activity))”.

Consider `CCCC1([C@H](O)C/C=C/[C@H]2[C@H](O)CC(=O)[C@@H]2CCCCCCC(=O)O)CCC1` [Compound 31, (R)-Butaprost (free acid)], for which the “Fold activity (1 uM)” value is given as “B (1.1~2.0 (moderate))”.

As for `CCCCC[C@H](O)/C=C/[C@H]1C(=O)C[C@H](O)[C@@H]1C/C=C\CCCC(=O)NC(CO)CO` [Compound 32, Prostaglandin D2 serinol amide], the “Fold activity (1 uM)” value was “C (below 1.0 (low activity))”.

`CCCCCC(=O)CC[C@H]1C(=O)C[C@H](O)[C@@H]1C/C=C\CCCC(=O)O` [Compound 33, 13,14-dihydro-15-keto Prostaglandin D2]: the “Fold activity (1 uM)” value is recorded as “B (1.1~2.0 (moderate))”.

As for `CCCCC[C@H](O)/C=C/[C@H]1[C@H](O)CC(=O)[C@@H]1CCCCCCCCC(=O)O` [Compound 34, 1a,1b-dihomo Prostaglandin E1], the “Fold activity (1 uM)” value is “B (1.1~2.0 (moderate))”.

With `CCCC1([C@H](O)C/C=C/[C@H]2[C@H](O)CC(=O)[C@@H]2CCCCCCC(=O)OC)CCC1` [Compound 35, (R)-Butaprost], the “Fold activity (1 uM)” value was “B (1.1~2.0 (moderate))”.

As for `CCCCC[C@H](O)/C=C/[C@H]1[C@H](O)CC(=O)[C@@H]1C/C=C\CCCC(=O)NCCO` [Compound 36, Prostaglandin E2 Ethanolamide], the “Fold activity (1 uM)” value is listed as “B (1.1~2.0 (moderate))”.

For `CCCCC[C@@H](O)/C=C/[C@H]1[C@H](O)CC(=O)[C@@H]1C/C=C\CCCC(=O)O` [Compound 37, 15(R)-Prostaglandin E2], the “Fold activity (1 uM)” value is “B (1.1~2.0 (moderate))”.

As to `O=C(O)CCC/C=C\C[C@H]1C(=O)C[C@@H](O)[C@@H]1/C=C/[C@@H](O)CCc1ccccc1` [Compound 38, 17-phenyl trinor Prostaglandin E2], the “Fold activity (1 uM)” value is “B (1.1~2.0 (moderate))”.

With `CCCCC[C@H](O)/C=C/[C@H]1[C@H](O)CC(=O)[C@@H]1C/C=C\CCCC(=O)NCCCCCNC(=O)CCCC[C@H]1SC[C@@H]2NC(=O)N[C@@H]21` [Compound 39, Prostaglandin E2-biotin], the “Fold activity (1 uM)” value is reported as “B (1.1~2.0 (moderate))”.
